This assay concerns the target Protein tyrosine phosphatase type IVA 3 (Homo sapiens, UniProt O75365). The assay can be described thus: In Vitro Biochemical Evaluation: The in vitro biochemical evaluation of all compounds was carried out using recombinant human PTP4A3, overexpressed as a His6-tag fusion protein in E. coli and purified on a metal affinity column. Assays were performed using 6,8-difluoro-4-methylumbelliferyl phosphate (DiFMUP) as an artificial substrate at 25° C. for 30 min in 40 mM Tris-HCl (pH 7.0), 75 mM NaCl, 2 mM EDTA, and 4 mM DTT buffer. […] The fluorescence was measured using a SpectraMax M5 plate reader at 358 nm excitation and 455 nm emission. Fluorescence values were used to calculate the percent inhibition of enzyme activity relative to maximal activity, PTP4A3 in the absence of inhibitor, and maximal inhibition, PTP4A3 in the presence of 2 mM Na3VO4.

Structures are written as SMILES.

Chain of Protein tyrosine phosphatase type IVA 3 (O75365 whole entry, the tested form may be a part): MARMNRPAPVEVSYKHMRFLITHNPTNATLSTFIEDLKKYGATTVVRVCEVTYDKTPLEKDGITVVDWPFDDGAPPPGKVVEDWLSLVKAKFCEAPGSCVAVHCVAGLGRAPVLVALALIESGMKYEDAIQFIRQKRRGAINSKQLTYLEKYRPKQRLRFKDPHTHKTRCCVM

In the case of `O=c1[nH]c(=O)c2cc(-c3ccccc3)sc2[nH]1`, the half-maximal inhibitory concentration (IC50) (as a rule, the midpoint of a concentration-inhibition curve) was over 250 µM.

The record behind these values is ChEMBL document CHEMBL5727068, “Inhibitors of PTP4A3 for the treatment of cancer” (2019).
